According to ChEMBL document CHEMBL5104145, “Synthesis of antiplasmodial 2-aminothieno[3,2-d]pyrimidin-4(3H)-one analogues using the scaffold hopping strategy” (Eur J Med Chem, 2022):
Values after ≈ are worked out from the molar mass of the structure shown.

Experiments:
[1] = Thermodynamic solubility of compound at pH 7.4 incubated for 24 hrs by shake-flask method; format: physicochemical; conditions: buffer, read-out: Therm_solubility
[2] = Permeability of compound at 100 uM at pH 6 incubated for 4 hrs by PAMPA-GIT assay; format: ADME; conditions: read-out: permeability
[3] = Permeability of compound at 100 uM at pH 7.4 incubated for 4 hrs by PAMPA-GIT assay; format: ADME; conditions: read-out: permeability
[4] = Permeability of compound at 100 uM at pH 5 incubated for 4 hrs by PAMPA-GIT assay; format: ADME; conditions: read-out: permeability
Plasmodium falciparum [5] = assay: Antiplasmodial activity against Plasmodium falciparum K1 assessed as reduction in parasite growth; format: functional, organism-based
Plasmodium falciparum [6] = assay: Antiplasmodial activity against chloroquine,pyrimethamine and proguanil resistant blood stage Plasmodium falciparum K1 assessed as reduction in parasite growth incubated for 72 hrs by SYBR Green I fluorescence-based method; format: functional, organism-based
[7] = Selectivity index, ratio of CC50 for cytotoxicity against human HepG2 cells to EC50 for antiplasmodial activity against chloroquine,pyrimethamine and proguanil resistant blood stage Plasmodium falciparum K1; format: toxicity, cell-based; conditions: for selectivity ratio: HepG2 cells, read-out: Ratio CC50/EC50
[8] = (§1) Cytotoxicity against human HepG2 cells assessed as reduction in cell viability incubated for 72 hrs by MTT assay; format: toxicity, cell-based; conditions: HepG2 cells
[9] = Solubility of compound in culture media; format: physicochemical
HepG2 = assay: as §1; format: toxicity, cell-based; conditions: hepg2, 72 h, 72 h
[10] = Plasmodium falciparum, K1, 72 h

Row | Compound | CC50 at 72 h [8] | EC50 (Plasmodium falciparum [6]; [10]) | selectivity ratio [7] | other results
1 | Cc1ccc(-c2cc3nc(NC(C)(C)C)[nH]c(=O)c3s2)cc1 | – | – | – | solubility thermodynamic at 24 h [1]: 1.56 µM (≈ 0.489 µg/mL); Papp at 4 h, 100 µM [2]: 18.6 nm/s; Papp at 4 h, 100 µM [3]: 20.5 nm/s; Papp at 4 h, 100 µM [4]: 41.8 nm/s
2 | Cc1ccc(-c2ccc3nc(NC(C)(C)C)[nH]c(=O)c3c2)cc1 | – | – | – | EC50 (Plasmodium falciparum [5]): > 5 µM
3 | Cc1ccc(-c2ccc3c(=O)[nH]c(NC(C)(C)C)nc3c2)cc1 | – | – | – | EC50 (Plasmodium falciparum [5]): > 5 µM
4 | Cc1ccc(-c2cc3nc(NC(C)(C)C)[nH]c(=O)c3s2)cc1.Cl | – | – | – | solubility thermodynamic at 24 h [1]: 7.92 µM; Papp at 4 h, 100 µM [3]: 4.6 nm/s
5 | Cc1ccc(-c2cc3nc(NC(C)(C)C)[nH]c(=O)c3o2)cc1 | 10.9 µM | – | – | EC50 (Plasmodium falciparum [6]): 0.8 µM; Ratio CC50/EC50 [7]: 13.6
6 | CC(C)(C)Nc1nc2cc(-c3ccc(F)cc3)oc2c(=O)[nH]1 | > 3.12 µM | 2.9 µM | > 1.1 | solubility [9]: Insoluble
7 | CC(C)(C)Nc1nc2sc(-c3ccccc3)cc2c(=O)[nH]1 | > 12.5 µM | 33.8 µM | > 0.4 | –
8 | Cc1ccc(-c2cc3nc(NC(C)C)[nH]c(=O)c3o2)cc1 | 20.4 µM | 0.09 µM | 227 | solubility thermodynamic at 24 h [1]: 11.5 µM (≈ 3.26 µg/mL); Papp at 4 h, 100 µM [2]: 643 nm/s; Papp at 4 h, 100 µM [3]: 769 nm/s; Papp at 4 h, 100 µM [4]: 411 nm/s
9 | Cc1ccc(-c2cc3nc(NC(C)C)[nH]c(=O)c3[se]2)cc1 | – | 0.8 µM | – | Ratio CC50/EC50 [7]: > 31.3; CC50 (HepG2): > 25 µM
10 | Cc1ccc(-c2nc3nc(NC(C)(C)C)[nH]c(=O)c3s2)cc1 | > 5 µM | 4.6 µM | > 1.1 | –
11 | Cc1ccc(-c2cc3nc(NC(C)(C)C)[nH]c(=O)c3[se]2)cc1 | – | – | – | EC50 (Plasmodium falciparum [6]): 1.3 µM; Ratio CC50/EC50 [7]: > 6; CC50 (HepG2): > 7.8 µM
12 | Cc1ccc(-c2cc3nc(NC(C)(C)C)[nH]c(=O)c3[se]2)cc1.Cl | – | – | – | EC50 (Plasmodium falciparum [6]): 0.13 µM; Ratio CC50/EC50 [7]: > 24; CC50 (HepG2): > 3.12 µM
13 | Cc1c(-c2ccc(F)cc2)sc2c(=O)[nH]c(NC(C)C)nc12 | 19.7 µM | 4.3 µM | 4.6 | –
14 | CC(C)(C)Nc1nc2sc(-c3ccc(Cl)cc3)cc2c(=O)[nH]1 | 21.4 µM | > 50 µM | < 0.4 | –
15 | CC(C)(C)Nc1nc2nc(-c3ccc(Cl)cc3)sc2c(=O)[nH]1 | – | – | – | solubility [9]: Insoluble
16 | Cc1ccc(-c2cc3nc(NC(C)(C)C)[nH]c(=O)c3o2)cc1.Cl | – | – | – | EC50 (Plasmodium falciparum [6]): 0.3 µM; Ratio CC50/EC50 [7]: 72.3; CC50 (HepG2): 21.7 µM
17 | CC(C)(C)Nc1nc2cc(-c3ccc(Cl)cc3)oc2c(=O)[nH]1 | > 6.25 µM | 0.4 µM | > 15.6 | solubility [9]: Insoluble
18 | Cc1ccc(-c2cc3nc(NC(C)C)[nH]c(=O)c3[se]2)cc1.Cl | – | – | – | EC50 (Plasmodium falciparum [6]): 0.77 µM; Ratio CC50/EC50 [7]: > 13; CC50 (HepG2): > 10 µM
19 | CC(C)(C)Nc1nc2nc(-c3ccc(F)cc3)sc2c(=O)[nH]1 | – | – | – | solubility [9]: Insoluble
20 | CC(C)(C)Nc1nc2sc(-c3ccc(F)cc3)cc2c(=O)[nH]1 | > 25 µM | > 12.5 µM | – | –
21 | Cc1ccc(-c2cc3c(=O)[nH]c(NC(C)(C)C)nc3s2)cc1 | 20.5 µM | 32.4 µM | 0.6 | –
22 | CC(C)(C)Nc1nc2nc(-c3ccccc3)sc2c(=O)[nH]1 | > 25 µM | > 12.5 µM | – | –
23 | CCOC(=O)c1[nH]c(-c2ccc(C)cc2)c2c(=O)[nH]c(NC(C)(C)C)nc12 | 7.4 µM | 17.1 µM | 0.4 | –
24 | Cc1c(-c2ccc(Cl)cc2)sc2c(=O)[nH]c(NC(C)C)nc12 | > 25 µM | 4.4 µM | > 5.7 | –
